# Data published in PMC5504357, “Antifungal Potential of Copper(II), Manganese(II) and Silver(I) 1,10-Phenanthroline Chelates Against Multidrug-Resistant Fungal Species Forming the Candida haemulonii Complex: Impact on the Planktonic and Biofilm Lifestyles” (Frontiers in Microbiology, 2017).
# Tests used:
# [1] = tested on: A549 cells; assay: Mammalian cell toxicity (MTT assay) and selectivity index; assay type: cell-based, Human; conditions: MTT, 48 h incubation
# Outline: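 A549 cells were exposed to compounds (0.0313–512 μg/mL) in DMEM for 48 h at 37 °C, 5% CO2. Viability was measured by MTT (3 h, dark), with formazan dissolved in DMSO and read at 450 nm. CC50 was derived, and SI calculated as A549 CC50 divided by C. haemulonii complex GM-MIC.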
# [2] = tested on: Candida duobushaemulonii; assay: Planktonic growth, broth microdilution (CLSI M27-A3), MIC; assay type: cell-based; conditions: for GM-MIC: geometric mean of three C. duobushaemulonii isolates; for MIC: planktonic, 48 h, 37°C
# Outline: (§1)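 Visual read-out: MIC taken as the lowest concentration showing no growth after 48 h incubation at 37°C in RPMI 1640. Compounds were serially diluted from DMSO solutions to 0.0625-32 mg/L, with matching DMSO controls, against three clinical isolates of each species.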
# [3] = tested on: Candida haemulonii; assay: as above; assay type: cell-based; conditions: for GM-MIC: geometric mean of three C. haemulonii isolates; for MIC: planktonic, 48 h, 37°C
# Outline: as §1
# [4] = tested on: Candida haemulonii var. vulnera; assay: as above; assay type: cell-based; conditions: for GM-MIC: geometric mean of three C. haemulonii var. vulnera isolates; for MIC: planktonic, 48 h, 37°C
# Outline: as §1
# [5] = tested on: Candida haemulonii complex; assay: Biofilm-growing cells, overall across isolates; assay type: cell-based; conditions: for Overall GM-bMIC: geometric mean across strains, values marked * do not include LIP Ch4 (>512)
# Experimental: (§2) The effect of the compounds on biofilm-growing cells was determined using the previously described microtiter-based technique (Ramage et al., [2001]). The fungi (10^6 yeast cells) were incubated for 48 h at 37°C in 96-well polystyrene microtiter plates (Corning®, Corning Incorporated, USA) containing Sabouraud-dextrose broth to accommodate biofilm formation. Following biofilm formation, the culture medium was aspirated and non-adherent cells removed by thoroughly washing the wells three times with sterile PBS (0.15 M NaCl, 0.01 M phosphate buffer, pH 7.2). Afterwards, the compounds, at the same concentrations used in the planktonic assays, were added to the wells, and the plates were incubated for further 48 h at 37°C. The metabolic activity was then evaluated using a colorimetric assay that measures the metabolic reduction of 2,3-bis (2-methoxy-4-nitro-5-sulfophenyl)-5-[(phenylamino) carbonyl]-2H-tetrazolium hydroxide (XTT; Sigma-Aldrich) to a water-soluble, brown formazan product (Peeters et al., [2008]). The biofilm MIC (bMIC) for each compound was established as the minimal concentration capable of inhibiting 50% of metabolic activity when compared to compound-free wells (Ziccardi et al., [2015]).
# [6] = tested on: C. haemulonii complex; assay: Planktonic growth, overall across all nine isolates; assay type: cell-based, Candida haemulonii complex; conditions: geometric mean across all nine strains; for MIC: in μM, read-out: Overall GM-MIC
# Outline: as §1
# [7] = tested on: Candida duobushaemulonii; assay: Biofilm-growing cells, XTT assay, bMIC; assay type: cell-based; conditions: for GM-bMIC: geometric mean, C. duobushaemulonii isolates; for bMIC: mature biofilm, 48 h, 50% inhibition of metabolic activity
# Experimental: as §2
# [8] = tested on: Candida haemulonii; assay: Biofilm-growing cells, XTT assay, bMIC; assay type: cell-based; conditions: for GM-bMIC: geometric mean, C. haemulonii isolates, values marked * do not include LIP Ch4 (>512); for bMIC: mature biofilm, 48 h, 50% inhibition of metabolic activity
# Experimental: as §2
# [9] = tested on: Candida haemulonii var. vulnera; assay: Biofilm-growing cells, XTT assay, bMIC; assay type: cell-based; conditions: for GM-bMIC: geometric mean, C. haemulonii var. vulnera isolates; for bMIC: mature biofilm, 48 h, 50% inhibition of metabolic activity
# Experimental: as §2
SMILES,A549 (CC50) [1] [µg/mL],GM-MIC [2] [µg/mL],MIC ([2]; isolate LIP Ch1) [µg/mL],MIC ([2]; isolate LIP Ch6) [µg/mL],MIC ([2]; isolate LIP Ch8) [µg/mL],GM-MIC [3] [µg/mL],MIC ([3]; isolate LIP Ch4) [µg/mL],MIC ([3]; isolate LIP Ch7) [µg/mL],MIC ([3]; isolate LIP Ch12) [µg/mL],GM-MIC [4] [µg/mL],MIC ([4]; isolate LIP Ch5) [µg/mL],MIC ([4]; isolate LIP Ch9) [µg/mL],MIC ([4]; isolate LIP Ch11) [µg/mL],Overall GM-bMIC ([5]; in μM) [µM],Overall GM-bMIC [5] [mg/L],Overall GM-MIC [6] [µg/mL],MIC [6] [µM],GM-bMIC [7] [mg/L],bMIC ([7]; isolate LIP Ch1) [mg/L],bMIC ([7]; isolate LIP Ch6) [mg/L],also measured
"O.O.O.O=C([O-])CCCCCCCCCC(=O)[O-].[Ag+].[Ag+].c1cnc2c(c1)ccc1cccnc12.c1cnc2c(c1)ccc1cccnc12.c1cnc2c(c1)ccc1cccnc12 [compound 18, [Ag2(phen)3(udda)].3H2O]",13.63,0.5,0.5,0.25,1,0.16,0.125,0.25,0.125,0.25,0.5,0.125,0.25,12.04,12.34,0.27,0.26,10.08,16,8,decrease in activity on going from planktonic to biofilm cells ([5]; biofilm MIC versus planktonic MIC): 46.3 fold; bMIC ([7]; isolate LIP Ch8): 8 mg/L; GM-bMIC [8]: 16 mg/L; bMIC ([8]; isolate LIP Ch4): 32 mg/L; bMIC ([8]; isolate LIP Ch7): 8 mg/L; bMIC ([8]; isolate LIP Ch14): 16 mg/L; GM-bMIC [9]: 11.31 mg/L; bMIC ([9]; isolate LIP Ch5): 8 mg/L; bMIC ([9]; isolate LIP Ch9): 0.5 mg/L; bMIC ([9]; isolate LIP Ch13): 16 mg/L
"O.O.O.O.O=C([O-])c1cccc(C(=O)[O-])c1.O=C([O-])c1cccc(C(=O)[O-])c1.[Mn+2].[Mn+2].c1cnc2c(c1)ccc1cccnc12.c1cnc2c(c1)ccc1cccnc12.c1cnc2c(c1)ccc1cccnc12 [compound 10, [Mn2(isoph)2(phen)3].4H2O]",255.87,6.35,8,8,4,6.35,8,8,4,4,4,4,4,13.96,14.67,5.44,5.15,16,16,16,bMIC ([7]; isolate LIP Ch8): 16 mg/L; GM-bMIC [8]: 16^* mg/L; bMIC ([8]; isolate LIP Ch4): >512 mg/L; bMIC ([8]; isolate LIP Ch7): 8 mg/L; bMIC ([8]; isolate LIP Ch14): 32 mg/L; GM-bMIC [9]: 12.70 mg/L; bMIC ([9]; isolate LIP Ch5): 32 mg/L; bMIC ([9]; isolate LIP Ch9): 8 mg/L; bMIC ([9]; isolate LIP Ch13): 8 mg/L
